Reference: patent US20200181284A1, “EPIGENETIC INHIBITORS FOR SENSITIZING HEMATOLOGIC OR OTHER MALIGNANCIES TO GLUCOCORTICOID THERAPY” (UNIVERSITY OF SOUTHERN CALIFORNIA, priority 2017, published 2020)
Entries after “also recorded” stand apart in the source; their conditions may differ.

Columns and labels:
[1] = test system: NALM6 cells; assay: Cell death assay (Presto Blue, 72 h) with dex plus inhibitor; format: cell-based, human; conditions: NALM-6, 16 nM Alisertib, 72 h
Description: Cells were plated in CellStar low evaporation lid 96-well round-bottom plate at a density of 100,000 cells/ml. Directly after plating, cells were treated in triplicate with serial dilutions of dexamethasone or vehicle control (0.1% ethanol). After 72 h, cell viability of each well was analyzed in duplicate using the Presto Blue Assay Reagent (Life Technologies). Fluorescence was measured and data were analyzed with Prism6 software.
FIGS. 40A, 40B, 40C, 40D-1, 40D-2, 40D-3, and 40D-4 show Aurora kinase B inhibitors sensitizing NALM6 cells to GC-induced cell death. As shown in FIGS. 40A and 40B, NALM6 cells were treated with the indicated dex concentration in addition to 0.75 μM ZM447439 (FIG. 40A), 16 nM AZD2811 (FIG. 40B), or equivalent volume of vehicle DMSO for 72 h, and cell survival was measured by a fluorescence metabolic assay. In each condition, the value measured with dex was normalized to the fluorescence value measured with ethanol. Percentage of survival is shown as the mean±SEM of 4 independent experiments and p-values for individual dex concentrations were calculated using a paired t-test. *p≤0.05, **p≤0.01, * * *p≤0.001. F-test comparing the two curves: p≤0.001. Insets show the EC50s that were calculated as the concentration at which half the cells remained alive, compare to vehicle controls. Error bars depict the SEM of 4 independent experiments and p-values were calculated to compare AURKB inhibitor treatment to DMSO using a paired t-test ** p≤0.01, * * *p≤0.001. […] The indicated proteins were then examined by immunoblot. As shown in FIGS. 40D-1, 40D-2, 40D-3, and 40D-4, NALM6 cells pre-treated with AZD2811 (16 nM) or DMSO for 24 h, were then treated for 8 h with 100 nM dex or ethanol. mRNA levels for the indicated GR target genes were measured by RT-qPCR and normalized to β-actin mRNA levels.
FIGS. 48A, 48B, 48C, 48D, 48E, and 48F show the effect of AURKB inhibitors on EHMT2 phosphorylation and dex-induced cell death. […] In each condition, the value measured with dex was normalized to the fluorescence value measured with ethanol. Percentage of survival is shown as the mean±SEM of 4 independent experiments and p-values for individual dex concentrations were calculated using a paired t-test. *p≤0.05, **p≤0.01, * * *p≤0.001. F-test comparing the two curves: p≤0.001. EC50s were calculated as the concentration at which half the cells remained alive, compare to vehicle controls. Error bars depict the SEM of 4 independent experiments and p-value was calculated to compare ZM treatment to DMSO using a paired t-test **p≤0.01, * * *p≤0.001. […] EC50s were calculated as the concentration at which half the cells remained alive, compare to vehicle controls. Error bars depict the SEM of 4 independent experiments and p-value was calculated to compare alisertib treatment to DMSO using a paired t-test. […] (E-F) RCH-ACV cells were treated with the indicated dex concentration in addition to 0.75 μM ZM447439 (FIG. 48E), 16 nM AZD2811 (FIG. 48F), or DMSO for 72 h, and cell survival was measured by a fluorescence metabolic assay. In each condition, the value measured with dex was normalized to the fluorescence value measured with ethanol. Percentage of survival is shown as the mean±SEM of 5 individual experiments and the p-value for each dex concentration was calculated using a paired t-test. *p≤0.05, **p≤0.01, * * *p≤0.001. F-test comparing the two curves: p≤0.001.
FIGS. 55A, 55B, and 55C show JIB-04 enhances GC-induced death of B-ALL cell line NALM6.

[2] = molecular target: T1, hG9a (Homo sapiens, UniProt Q96KQ7); assay: Methylation of HA-hG9a in Cos-7 cells (pan met-K immunoprecipitation/immunoblot); format: cell-based, African green monkey; conditions: Cos-7 cells, 24 h
T1 construct: transfected with a plasmid encoding full length HA-hG9a and treated with 2 μM UNC0646; expressed in transfected cells; host or cells: Cos-7
T1 sequence (Q96KQ7 1-1210): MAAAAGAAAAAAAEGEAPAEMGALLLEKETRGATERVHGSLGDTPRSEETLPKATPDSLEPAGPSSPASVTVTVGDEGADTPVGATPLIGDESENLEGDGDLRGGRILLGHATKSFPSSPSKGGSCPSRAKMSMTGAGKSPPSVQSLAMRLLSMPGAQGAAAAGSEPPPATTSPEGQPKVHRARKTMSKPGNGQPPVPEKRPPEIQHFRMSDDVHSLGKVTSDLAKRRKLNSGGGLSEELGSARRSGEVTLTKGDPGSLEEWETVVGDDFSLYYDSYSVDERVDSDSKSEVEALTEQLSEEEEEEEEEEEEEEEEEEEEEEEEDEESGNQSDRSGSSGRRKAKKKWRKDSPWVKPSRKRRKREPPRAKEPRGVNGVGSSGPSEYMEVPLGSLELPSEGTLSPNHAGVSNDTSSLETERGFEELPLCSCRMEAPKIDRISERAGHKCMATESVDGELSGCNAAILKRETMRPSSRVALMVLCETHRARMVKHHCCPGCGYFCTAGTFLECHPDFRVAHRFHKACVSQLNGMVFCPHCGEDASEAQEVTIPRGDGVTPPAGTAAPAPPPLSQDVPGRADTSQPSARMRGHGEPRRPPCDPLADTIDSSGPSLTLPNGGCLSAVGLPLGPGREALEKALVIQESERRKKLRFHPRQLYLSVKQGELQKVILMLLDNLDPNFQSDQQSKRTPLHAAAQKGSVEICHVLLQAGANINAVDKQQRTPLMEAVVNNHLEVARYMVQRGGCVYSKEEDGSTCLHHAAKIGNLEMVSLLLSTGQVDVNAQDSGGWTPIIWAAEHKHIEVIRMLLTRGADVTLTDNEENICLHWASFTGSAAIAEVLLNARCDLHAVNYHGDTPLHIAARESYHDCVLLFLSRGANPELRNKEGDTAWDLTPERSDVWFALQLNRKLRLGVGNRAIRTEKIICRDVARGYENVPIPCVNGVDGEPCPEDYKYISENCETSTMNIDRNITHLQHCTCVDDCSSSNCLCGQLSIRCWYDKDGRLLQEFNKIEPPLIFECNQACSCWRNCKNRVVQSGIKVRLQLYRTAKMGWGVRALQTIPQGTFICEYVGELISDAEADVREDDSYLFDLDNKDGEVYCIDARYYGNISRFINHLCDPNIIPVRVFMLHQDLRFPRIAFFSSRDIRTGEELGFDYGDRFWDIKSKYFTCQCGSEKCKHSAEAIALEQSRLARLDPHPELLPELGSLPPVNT
Description: Cells were transiently transfected (where indicated) using Lipofectamine 2000 (Invitrogen) with 5 μg each of the indicated plasmids according to the manufacturer's protocol. […] Protein extracts were incubated with 1 μg of the indicated primary antibodies overnight at 4° C. with shaking. Protein A/G Plus Agarose (Santa Cruz sc-2003) beads were added and the mixture was incubated 2 hr at 4° C. The immunoprecipitates were separated on SDS-PAGE. Immunoblotting was conducted with primary antibodies against HA epitope (3F10 Roche Applied Science); G9a (G6919), FLAG (F1804), (3-actin (A5441), or GAPDH (G9545) from Sigma; aurora kinase B (ab2254), HP1γ (ab10480), HP1γ (ab56978), phospho-593-HP1γ (ab45270) or pan methyllysine (ab23366) from Abcam; GR (sc-8992) from Santa Cruz; GLP (09-078), or pan phospho-threonine (AB1607) from Millipore; phospho-S211-GR (#4161), H3K9me3 (#13969), H3S10ph (#53348), Histone H3 (#4499) from Cell signaling; or E-cadherin (610182) from BD transduction laboratories. Secondary antibodies from Santa Cruz Biotechnology (anti-rat) and Promega (anti-rabbit and anti-mouse) were used for chemiluminescence detection using Super Signal West Dura (Thermo Scientific) for proteins with low expression levels and ECL prime detection reagent (Amersham) for all other proteins according to the manufacturers' instructions. In immunoprecipitation experiments 3% of the input of each sample was analyzed by immunoblot using the antibodies listed.
Lysates were immunoprecipitated (IP) with pan met-K antibody and immunoblotted with HA antibody (top), or the usage of the two antibodies was reversed (bottom). Expression of HA-tagged proteins and β-actin (loading control) in the unfractionated extracts is shown at the bottom (Input). For FIG. 17D, Cos-7 cells were transfected with a plasmid encoding full length HA-hG9a and treated with 2 μM UNC0646 or vehicle DMSO for 24 h. Lysates were immunoprecipitated with pan met-K antibody and immunoblotted with HA antibody (top), or the usage of the two antibodies was reversed (bottom).
Lysates were immunoprecipitated with pan met-K antibody and immunoblotted with HA antibody (top).

Q: With `COc1cc(Nc2ncc3c(n2)-c2ccc(Cl)cc2C(c2c(F)cccc2OC)=NC3)ccc1C(=O)O` [Alisertib] as the compound, how does the “cell survival with dex” value [1] read?
A: not significant; also recorded: did not have any effect

Q: How did the “pan-methyllysine antibody signal on wild type hG9a” value ([2]; 2 μM inhibitor) turn out when `COc1cc2c(NC3CCN(C(C)C)CC3)nc(N3CCC(F)(F)CC3)nc2cc1OCCCN1CCCC1` [UNC0642] was run?
A: strongly decreased

Q: `Nc1ncnc2c1ncn2C(C=O)OC(C=O)CO` (stereo not drawn) [Adox, adenosine dialdehyde] was tested. Which “pan-methyllysine antibody signal on wild type hG9a” value ([2]; 40 μM) did it give?
A: strongly decreased
